Source: the supplement of paper PMC11451515

Tested on: P12-Ichikawa
Assay: cell viability relative to DMSO control; higher = less cytotoxic
Details: 48 h
In short: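 Viability was expressed as a per-plate percentage of DMSO wells, with cell-free wells as background. Leukemia cells (NOMO1 or SEM at 500 cells/well, P12-Ichikawa at 1000 cells/well) were adapted for at least four passages in each medium and seeded in 1536-well plates (5 μl). Library compounds in DMSO were pin-dosed over an 11-point threefold series from 47 μM to 0.79 nM, and CellTiter-Glo One luminescence was read after 48 h at 37°C.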

[1] = HPLM + 10% dialyzed FBS, 0.000781 µM
[2] = HPLM + 10% dialyzed FBS, 0.00234 µM
[3] = HPLM + 10% dialyzed FBS, 0.00702 µM
[4] = HPLM + 10% dialyzed FBS, 0.0211 µM
[5] = HPLM + 10% dialyzed FBS, 0.0632 µM
[6] = HPLM + 10% dialyzed FBS, 0.19 µM
[7] = HPLM + 10% dialyzed FBS, 0.569 µM
[8] = HPLM + 10% dialyzed FBS, 1.71 µM
[9] = HPLM + 10% dialyzed FBS, 5.12 µM
[10] = HPLM + 10% dialyzed FBS, 15.4 µM
[11] = HPLM + 10% dialyzed FBS, 46.1 µM
[12] = RPMI 5 mM glucose + 10% FBS, 0.000781 µM
[13] = RPMI 5 mM glucose + 10% FBS, 0.00234 µM
[14] = RPMI 5 mM glucose + 10% FBS, 0.00702 µM
[15] = RPMI 5 mM glucose + 10% FBS, 0.0211 µM
[16] = RPMI 5 mM glucose + 10% FBS, 0.0632 µM
[17] = RPMI 5 mM glucose + 10% FBS, 0.19 µM
[18] = RPMI 5 mM glucose + 10% FBS, 0.569 µM
[19] = RPMI 5 mM glucose + 10% FBS, 1.71 µM
[20] = RPMI 5 mM glucose + 10% FBS, 5.12 µM
[21] = RPMI 5 mM glucose + 10% FBS, 15.4 µM
[22] = RPMI 5 mM glucose + 10% FBS, 46.1 µM
[23] = RPMI 5 mM glucose + 10% dialyzed FBS, 0.000781 µM
[24] = RPMI 5 mM glucose + 10% dialyzed FBS, 0.00234 µM
[25] = RPMI 5 mM glucose + 10% dialyzed FBS, 0.00702 µM
[26] = RPMI 5 mM glucose + 10% dialyzed FBS, 0.0211 µM
[27] = RPMI 5 mM glucose + 10% dialyzed FBS, 0.0632 µM
[28] = RPMI 5 mM glucose + 10% dialyzed FBS, 0.19 µM
[29] = RPMI 5 mM glucose + 10% dialyzed FBS, 0.569 µM
[30] = RPMI 5 mM glucose + 10% dialyzed FBS, 1.71 µM
[31] = RPMI 5 mM glucose + 10% dialyzed FBS, 5.12 µM
[32] = RPMI 5 mM glucose + 10% dialyzed FBS, 15.4 µM
[33] = RPMI 5 mM glucose + 10% dialyzed FBS, 46.1 µM

| Structure (SMILES) | cell viability [1] [%] | cell viability [2] [%] | cell viability [3] [%] | cell viability [4] [%] | cell viability [5] [%] | cell viability [6] [%] | cell viability [7] [%] | cell viability [8] [%] | cell viability [9] [%] | cell viability [10] [%] | cell viability [11] [%] | cell viability [12] [%] | cell viability [13] [%] | cell viability [14] [%] | cell viability [15] [%] | cell viability [16] [%] | cell viability [17] [%] | cell viability [18] [%] | cell viability [19] [%] | cell viability [20] [%] | cell viability [21] [%] | cell viability [22] [%] | cell viability [23] [%] | cell viability [24] [%] | cell viability [25] [%] | cell viability [26] [%] | cell viability [27] [%] | cell viability [28] [%] | cell viability [29] [%] | cell viability [30] [%] | cell viability [31] [%] | cell viability [32] [%] | cell viability [33] [%] |
| --- | --- | --- | --- | --- | --- | --- | --- | --- | --- | --- | --- | --- | --- | --- | --- | --- | --- | --- | --- | --- | --- | --- | --- | --- | --- | --- | --- | --- | --- | --- | --- | --- | --- |
| O=C(Nc1ccccc1)Nc1ccc(-c2ccc(C(=O)[C@@H]3CCC[C@H]3C(=O)O)cc2)cc1 | 105 | 102 | 117 | 113 | 113 | 122 | 96.7 | 105 | 90.8 | 87 | 79 | 110 | 117 | 100 | 113 | 116 | 114 | 118 | 102 | 92.8 | 73 | 86.2 | 123 | 121 | 116 | 104 | 122 | 122 | 115 | 114 | 89.6 | 83.9 | 83.1 |
| COc1cc(N2CCC(N3CCN(C)CC3)CC2)ccc1Nc1ncc(Cl)c(Nc2ccccc2[S+](=O)([O-])C(C)C)n1 | 106 | 101 | 129 | 140 | 142 | 136 | 144 | 104 | 23.6 | 12.2 | 31.5 | 83.4 | 87.1 | 138 | 149 | 159 | 151 | 147 | 104 | 33.7 | 37.4 | 40.3 | 99.3 | 88.2 | 146 | 161 | 177 | 171 | 161 | 150 | 53.3 | 58 | 65.5 |
| CCOC(=O)c1c(CSc2ccccc2)n(C)c2cc(Br)c(O)c(CN(C)C)c12 | 121 | 119 | 128 | 126 | 123 | 127 | 118 | 115 | 124 | 115 | 109 | 118 | 127 | 122 | 126 | 128 | 123 | 125 | 112 | 112 | 113 | 73.5 | 121 | 119 | 125 | 129 | 123 | 118 | 127 | 118 | 124 | 113 | 76.3 |
| COc1cccc(OC)c1-c1cc(C(=O)NC2(C(=O)O)C3CC4CC(C3)CC2C4)nn1-c1ccnc2cc(Cl)ccc12 (configuration not stated) | 115 | 118 | 112 | 116 | 114 | 109 | 114 | 113 | 101 | 94.7 | 86.1 | 113 | 119 | 126 | 118 | 119 | 99.4 | 126 | 110 | 115 | 112 | 97.5 | 113 | 118 | 119 | 114 | 117 | 110 | 101 | 110 | 107 | 108 | 99.9 |
| O=C(O)c1cccnc1 | 107 | 107 | 115 | 114 | 106 | 107 | 106 | 96.1 | 68.9 | 47.1 | 35.8 | 113 | 112 | 126 | 113 | 118 | 119 | 117 | 110 | 99.7 | 55.8 | 30.9 | 110 | 112 | 106 | 108 | 108 | 102 | 105 | 98.2 | 76.5 | 33.4 | 9.03 |
| C/C1=C/C(=C(/CNC(=O)C2=CC(=CC3=C2C=N[N]3C4CCCC4)C5=CC=C(CN6CCOCC6)C=C5)C(=O)N1)C | 113 | 118 | 118 | 117 | 124 | 120 | 114 | 112 | 114 | 106 | 38.6 | 128 | 124 | 120 | 117 | 126 | 123 | 126 | 123 | 115 | 122 | 45.8 |  |  |  |  |  |  |  |  |  |  |  |
| c1coc(CNc2ncnc3nc[nH]c23)c1 |  |  |  |  |  |  |  |  |  |  |  |  |  |  |  |  |  |  |  |  |  |  | 123 | 132 | 116 | 122 | 131 | 131 | 130 | 127 | 122 | 115 | 105 |
| Cc1nc(-c2ccc(-c3ccc(C(=O)N4CCc5cc6c(cc54)C4(CCN(C)CC4)CO6)cc3)c(C)c2)no1 | 106 | 114 | 111 | 116 | 122 | 111 | 121 | 123 | 119 | 119 | 120 | 107 | 112 | 106 | 116 | 117 | 114 | 123 | 115 | 121 | 124 | 118 | 107 | 107 | 113 | 116 | 110 | 121 | 120 | 116 | 115 | 121 | 126 |
| Cc1nnc(C(C)C)n1[C@@H]1C[C@H]2CC[C@@H](C1)N2CC[C@H](NC(=O)C1CCC(F)(F)CC1)c1ccccc1 | 88.3 | 99.8 | 107 | 111 | 105 | 102 | 113 | 110 | 101 | 89.1 | 63.8 | 85 | 90.2 | 94.3 | 100 | 95.9 | 103 | 107 | 99.4 | 104 | 92 | 59.2 | 71.4 | 96 | 89.1 | 101 | 94.5 | 105 | 97.4 | 103 | 101 | 81.1 | 48.3 |
| CCC(=O)N1CCN(CC1)C2=C(C=C(C=C2)N3C(=O)\C=C/C4=C3C5=CC(=CC=C5N=C4)C6=CN=C7C=CC=CC7=C6)C(F)(F)F | 89 | 102 | 99.2 | 97.1 | 82.9 | 85.3 | 81.8 | 77.3 | 73.8 | 70.9 | 77 | 84.7 | 90.8 | 84 | 75.5 | 68 | 65.3 | 62.9 | 61.3 | 59.6 | 56.5 | 49.8 | 86.4 | 98.3 | 97.6 | 80.5 | 77.2 | 71.2 | 68.4 | 57.7 | 60.8 | 48.3 | 54.4 |
| CN(C)c1ccc(-c2nc3c(N4CCN(CC(=O)Nc5nccs5)CC4)c(Cl)cnc3[nH]2)cc1 | 109 | 107 | 118 | 110 | 113 | 117 | 115 | 109 | 108 | 102 | 103 | 113 | 114 | 116 | 131 | 109 | 125 | 111 | 115 | 118 | 95.9 | 103 |  |  |  |  |  |  |  |  |  |  |  |
| C[C@@H](Cc1cc2c(c(C(N)=O)c1)N(CCCO)CC2)NCCOc1ccccc1OCC(F)(F)F | 91.9 | 115 | 101 | 116 | 113 | 112 | 119 | 114 | 112 | 118 | 110 | 99.4 | 111 | 106 | 130 | 116 | 123 | 115 | 101 | 112 | 117 | 102 | 90.4 | 104 | 103 | 105 | 111 | 109 | 109 | 110 | 99.4 | 109 | 97.5 |
| N#CC1(c2cccc(C(=O)Nc3cc(Oc4ccc5nc(NC(=O)C6CC6)sc5n4)ccc3F)c2Cl)CC1 | 114 | 111 | 115 | 115 | 112 | 108 | 97 | 72.8 | 66.7 | 29 | 21.1 | 110 | 114 | 110 | 108 | 108 | 106 | 81.2 | 74.7 | 59.3 | 34.3 | 13.4 | 105 | 113 | 118 | 117 | 115 | 115 | 90.5 | 69 | 57.6 | 38.7 | 23.7 |
| CC1=CC/2=C(C=C1C)N(C[C@@H](O)[C@@H](O)[C@@H](O)CO)C/3=N/C(=O)NC(=O)C3=N2 | 118 | 123 | 117 | 116 | 120 | 129 | 113 | 109 | 115 | 103 | 107 |  |  |  |  |  |  |  |  |  |  |  | 122 | 122 | 121 | 132 | 123 | 121 | 118 | 113 | 108 | 105 | 102 |
| Cc1cc(/C=c2/sc3nc4ccccc4n3c2=O)c(C)n1-c1ccccc1 | 121 | 127 | 123 | 119 | 123 | 119 | 128 | 125 | 122 | 113 | 112 |  |  |  |  |  |  |  |  |  |  |  | 110 | 126 | 116 | 132 | 126 | 121 | 124 | 124 | 105 | 112 | 120 |
| CCN(CC)CCCC(C)Nc1ccnc2cc(Cl)ccc12 (configuration not stated) | 105 | 110 | 112 | 117 | 119 | 121 | 113 | 109 | 101 | 27.5 | 21 | 105 | 114 | 108 | 102 | 111 | 112 | 107 | 103 | 101 | 21.4 | 20.7 | 107 | 109 | 106 | 109 | 106 | 101 | 117 | 110 | 98.2 | 27.7 | 22 |
